Measured values published in patent publication US20110190263A1, “COMPOUNDS AND COMPOSITIONS AS MODULATORS OF GPR119 ACTIVITY” (IRM LLC, priority 2008, published 2011).

Target: T1, human GPR119 (Homo sapiens, UniProt Q8TDV5)
T1 construct: expressed in transfected cells
T1 sequence (Q8TDV5 1-335): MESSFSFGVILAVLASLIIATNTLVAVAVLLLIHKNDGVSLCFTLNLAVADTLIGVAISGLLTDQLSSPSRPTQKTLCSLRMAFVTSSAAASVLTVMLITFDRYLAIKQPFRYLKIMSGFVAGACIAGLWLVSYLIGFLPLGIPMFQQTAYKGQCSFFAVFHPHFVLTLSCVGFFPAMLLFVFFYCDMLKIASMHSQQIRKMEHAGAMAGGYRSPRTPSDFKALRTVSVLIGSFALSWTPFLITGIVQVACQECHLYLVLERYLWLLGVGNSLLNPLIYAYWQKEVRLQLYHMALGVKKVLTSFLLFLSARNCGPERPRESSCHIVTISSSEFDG
Experiment: Cyclic AMP assay in stable cell line (Flp-In-CHO-hGPR119, HTRF)
Type: cell-based
Details: Flp-In-CHO-hGPR119 cells, intracellular cAMP by HTRF, 1 mM IBMX, 37° C. for 30 minutes
Method: Flp-In-CHO cells (Invitrogen, Cat.# R758-07) are maintained in Ham's F12 medium supplemented with 10% fetal bovine serum, 1% antibiotic mixture and 2 mM L-glutamine. The cells are transfected with a DNA mixture containing human GPR119 in pcDNA5/FRT vector and the pOG44 vector (1:9) using Fugene6 (Roche), according to the manufacturer's instruction. After 48 hours, the medium is changed to medium supplemented with 400 μg/ml hygromycin B to initiate the selection of stably transfected cells.
To test the activity of compounds of the invention, Flp-In-CHO-hGPR119 cells are harvested and resuspended in DMEM plus 3% lipid-depleted fetal bovine serum. Forth μl of cells are plated in 384 well plates at a density of 15,000 cells/well. IBMX (3-isobutyl-1-methyl-xanthine) is added to the cells to a final concentration of 1 mM, followed by the addition of 500 nl of the compound to be tested. The cells are incubated at 37° C. for 30 minutes. Equal volume (20 μl) of the HTRF reagents, anti-cAMP-Cryptate and cAMP-XL665, are added to the cells. The plates are incubated at room temperature for 1 hour and read on a HTRF reader according to the manufacturer's instruction.

SMILES	EC50 [nM]
CCc1cnc(-c2ccc(CCCOc3ncc4c(n3)CCN(S(C)(=O)=O)C4)cc2)nc1 [Example G15, 5-ethyl-2-{4-[3-({6-methanesulfonyl-5H,6H,7H,8H-pyrido[4,3-d]pyrimidin-2-yl}oxy)propyl]phenyl}pyrimidine]	366
C[C@H]1CN(C(=O)OC2(C)CC2)CC[C@H]1COC1CN(c2ncc3c(n2)CCN(S(C)(=O)=O)C3)C1 [Example J2, 1-methylcyclopropyl(3R,4R)-4-{[(1-{6-methanesulfonyl-5H,6H,7H,8H-pyrido[4,3-d]pyrimidin-2-yl}azetidin-3-yl)oxy]methyl}-3-methylpiperidine-1-carboxylate]	174
CC1(OC(=O)N2CCC(Cc3cn(-c4ncc5c(n4)CCN(S(C)(=O)=O)C5)cn3)CC2)CC1 [Example G18, 1-methylcyclopropyl 4-[(1-{6-methanesulfonyl-5H,6H,7H,8H-pyrido[4,3-d]pyrimidin-2-yl}-1H-imidazol-4-yl)methyl]piperidine-1-carboxylate]	122
CCc1cnc(N2CCC(CCCOc3ccc4c(n3)CCN(S(C)(=O)=O)C4)CC2)nc1 [Example F1, 2-(3-(1-(5-Ethylpyrimidin-2-yl)piperidin-4-yl)propoxy)-6-(methylsulfonyl)-5,6,7,8-tetrahydro-1,6-naphthyridine]	27
CC(C)OC(=O)N1CCC(CCCCOC2=NCCC3CN(S(C)(=O)=O)CCC23)CC1 (centres unmarked) [Example A8, isopropyl 4-(4-(6-(methylsulfonyl)-3,4,4a,5,6,7,8,8a-octahydro-2,6-naphthyridin-1-yloxy)butyl)piperidine-1-carboxylate]	137
CS(=O)(=O)N1CCc2nc(CNCCc3cccc(Br)c3)ncc2C1 [Example B3, 2-(3-bromophenyl)-N-((6-(methylsulfonyl)-5,6,7,8-tetrahydropyrido[4,3-d]pyrimidin-2-yl)methyl)ethanamine]	2440
CC1(OC(=O)N2CCC(CCCOc3ncc4c(n3)CCN(S(C)(=O)=O)C4)CC2)CC1 [Example D2, 1-Methylcyclopropyl 4-(3-(6-(methylsulfonyl)-5,6,7,8-tetrahydropyrido[4,3-d]pyrimidin-2-yloxy)propyl)piperidine-1-carboxylate]	2
CCc1cnc(N2CCC(CCCNc3ncc4c(n3)CCN(S(C)(=O)=O)C4)CC2)nc1 [Example D5, N-(3-(1-(5-Ethylpyrimidin-2-yl)piperidin-4-yl)propyl)-6-(methylsulfonyl)-5,6,7,8-tetrahydropyrido[4,3-d]pyrimidin-2-amine]	7
CCc1cnc(N2CCC(COCC3CN(c4ncc5c(n4)CCN(S(C)(=O)=O)C5)C3)CC2)nc1 [Example G5]	666
CCc1cnc(N2CCc3c(cccc3OC3CN(c4ncc5c(n4)CCN(S(C)(=O)=O)C5)C3)C2)nc1 [Example I1, 2-(3-(2-(5-Ethylpyrimidin-2-yl)-1,2,3,4-tetrahydroisoquinolin-5-yloxy)azetidin-1-yl)-6-(methylsulfonyl)-5,6,7,8-tetrahydropyrido[4,3-d]pyrimidine]	49
CCc1cnc(N2CCC(CCCOc3ncc4c(n3)CCN(S(=O)(=O)CCCO)C4)CC2)nc1 [Example D9, 3-(2-{3-[1-(5-ethylpyrimidin-2-yl)piperidin-4-yl]propoxy}-5H,6H,7H,8H-pyrido[4,3-d]pyrimidine-6-sulfonyl)propan-1-ol]	5
CC(C)c1noc(N2CCC(CCCNc3ncc4c(n3)CCN(S(C)(=O)=O)C4)CC2)n1 [Example D4, N-(3-(1-(3-isopropyl-1,2,4-oxadiazol-5-yl)piperidin-4-yl)propyl)-6-(methylsulfonyl)-5,6,7,8-tetrahydropyrido[4,3-d]pyrimidin-2-amine]	6
CC1(OC(=O)N2CCC(COC3CN(c4ncc5c(n4)CCN(S(C)(=O)=O)C5)C3)CC2)CC1 [Example G6]	28
CCc1cnc(N2CCC(OCCOc3ncc4c(n3)CCN(S(C)(=O)=O)C4)CC2)nc1 [Example E1, 2-(2-(1-(5-ethylpyrimidin-2-yl)piperidin-4-yloxy)ethoxy)-6-(methylsulfonyl)-5,6,7,8-tetrahydropyrido[4,3-d]pyrimidine]	212
CC(C)OC(=O)N1CCC(CCCCn2ccc3c(c2=O)CCN(S(C)(=O)=O)C3)CC1 [Example A7, isopropyl 4-(4-(6-(methylsulfonyl)-1-oxo-5,6,7,8-tetrahydro-2,6-naphthyridin-2(1H)-yl)butyl)piperidine-1-carboxylate]	94
CC1(OC(=O)N2CCC(CCCNc3ncc4c(n3)CCN(S(C)(=O)=O)C4)CC2)CC1 [Example D7, 1-methylcyclopropyl 4-(3-(6-(methylsulfonyl)-5,6,7,8-tetrahydropyrido[4,3-d]pyrimidin-2-ylamino)propyl)piperidine-1-carboxylate]	8
CCc1cnc(N2CCC(COC3CCN(c4ncc5c(n4)CCN(S(C)(=O)=O)C5)CC3)CC2)nc1 [Example G9]	317
CCc1cnc(N2CCC(C(C)OC3CN(c4ncc5c(n4)CCN(S(C)(=O)=O)C5)C3)CC2)nc1 (racemic) [Example H1, (±)-2-(3-(1-(1-(5-Ethylpyrimidin-2-yl)piperidin-4-yl)ethoxy)azetidin-1-yl)-6-(methylsulfonyl)-5,6,7,8-tetrahydropyrido[4,3-d]pyrimidine]	183
CC1(OC(=O)N2CCC(CCOCc3ncc4c(n3)CCN(S(C)(=O)=O)C4)CC2)CC1 [Example C1, 1-Methylcyclopropyl 4-(2-((6-(methylsulfonyl)-5,6,7,8-tetrahydropyrido[4,3-d]pyrimidin-2-yl)methoxy)ethyl)piperidine-1-carboxylate]	514
CN(CCCC1CCN(C(=O)OC2(C)CC2)CC1)c1ncc2c(n1)CCN(S(C)(=O)=O)C2 [Example D8, 1-methylcyclopropyl 4-(3-(methyl(6-(methylsulfonyl)-5,6,7,8-tetrahydropyrido[4,3-d]pyrimidin-2-yl)amino)propyl)piperidine-1-carboxylate]	10
CCc1cnc(N2CCC(CCCOc3ncc4c(n3)CCN(S(C)(=O)=O)C4)CC2)nc1 [Example D3, 2-(3-(1-(5-Ethylpyrimidin-2-yl)piperidin-4-yl)propoxy)-6-(methylsulfonyl)-5,6,7,8-tetrahydropyrido[4,3-d]pyrimidine]	4
CC(C)OC(=O)N1CCC(CCCCOc2nccc3c2CCN(S(C)(=O)=O)C3)CC1 [Example A9, isopropyl 4-(4-(6-(methylsulfonyl)-5,6,7,8-tetrahydro-2,6-naphthyridin-1-yloxy)butyl)piperidine-1-carboxylate]	191
CO[C@H]1CN(C(=O)OC2(C)CC2)CC[C@H]1COC1CN(c2ncc3c(n2)CCN(S(C)(=O)=O)C3)C1 (racemic) [Example J1, (±)-(3R,45)-1-Methylcyclopropyl 3-methoxy-4-((1-(6-(methylsulfonyl)-5,6,7,8-tetrahydropyrido[4,3-d]pyrimidin-2-yl)azetidin-3-yloxy)methyl)piperidine-1-carboxylate]	711
CC(C)OC(=O)N1CCC(Oc2nccc3c2CCN(S(C)(=O)=O)C3)CC1 [Example A4, isopropyl 4-(6-(methylsulfonyl)-5,6,7,8-tetrahydro-2,6-naphthyridin-1-yloxy)piperidine-1-carboxylate]	3710
CCc1cnc(N2CCC(COC3CN(c4ncc5c(n4)CCN(S(C)(=O)=O)C5)C3)CC2)nc1 [Example G1, 2-(3-((1-(5-Ethylpyrimidin-2-yl)piperidin-4-yl)methoxy)azetidin-1-yl)-6-(methylsulfonyl)-5,6,7,8-tetrahydropyrido[4,3-d]pyrimidine]	9
CC(C)c1noc(N2CCC(COC3CN(c4ncc5c(n4)CCN(S(C)(=O)=O)C5)C3)CC2)n1 [Example G11]	170
CC(C)(C)OC(=O)N1CC(OCC2CCN(c3ncc4c(n3)CCN(S(C)(=O)=O)C4)CC2)C1 [Example G7]	22
CC(C)OC(=O)N1CCC(N2CCC3CN(S(C)(=O)=O)CCC3C2=O)CC1 (centres unmarked) [Example A5, isopropyl 4-(6-(methylsulfonyl)-1-oxooctahydro-2,6-naphthyridin-2(1H)-yl)piperidine-1-carboxylate]	4360
CS(=O)(=O)N1CCc2nc(OCCCc3ccc(-n4cccn4)nc3)ncc2C1 [Example G16, 5-[3-({6-methanesulfonyl-5H,6H,7H,8H-pyrido[4,3-d]pyrimidin-2-yl}oxy)propyl]-2-(1H-pyrazol-1-yl)pyridine]	1020
